Data: patent US12193972B2, “Intraocular drug delivery systems and methods of use” (SpyGlass Pharma, Inc., priority 2022, dated 2025)

Legend:
[1] = Bimatoprost sampled in the aqueous humor of dogs over time (FIG. 9); assay type: in vivo
Text: In this example, there was a low dose group of dogs (Grp 1), a mid-dose group of dogs (Grp 2), a high dose group of dogs (Grp 3), and a placebo group of dogs (Grp 4).

[2] = daily release or elution of Bimatoprost in vitro versus time (FIG. 8); assay type: physicochemical; settings: four-hundred-day study

## CCNC(=O)CCC/C=C\C[C@@H]1[C@@H](/C=C/[C@@H](O)CCc2ccccc2)[C@H](O)C[C@@H]1O [Bimatoprost]
[1]; low dose (Grp 1), mid-dose (Grp 2) and high dose (Grp 3) groups, study period of about one hundred thirteen days
  level of Bimatoprost in the aqueous humor, elution kinetics: zero-order elution rate
[1]; low, mid and high dose groups
  mean measurements of Bimatoprost in the aqueous humor, dose dependence: increased with the higher doses
[2]
  release kinetics over the study: essentially a zero-order and/or a steady state elution rate
[2]; drug delivery component
  average release rate: less than 0.100 micrograms per day
